Where a name gives a salt, the structure may show the parent alone.
Experiments:
[1] = target: Bcl-2 protein (histag-Bcl-2, UniProtKB P10415) (Homo sapiens, UniProt P10415); assay: Inhibition of Bcl-2 by the fluorescence polarisation technique; assay type: binding; details: fluorescence polarisation, 2 hours incubation; read-out: IC50 (μM) Bcl-2 FP
Experimental: The fluorescence polarisation tests were carried out on microplates (384 wells). The Bcl-2 protein, labelled (histag-Bcl-2 such that Bcl-2 corresponds to the UniProtKB® primary accession number: P10415), at a final concentration of 5×10^−9M, is mixed with a fluorescent peptide (Fluorescein-REIGAQLRRMADDLNAQY), at a final concentration of 1.00×10^−9M in a buffer solution (Hepes 10 mM, NaCl 150 mM, Tween20 0.05%, pH 7.4), in the presence or absence of increasing concentrations of test compounds. After incubation for 2 hours, the fluorescence polarisation is measured.

[2] = tested on: RS4; 11 leukaemia tumour line; assay: In vitro cytotoxicity, Microculture Tetrazolium Assay (MTT); assay type: cell-based; details: 11 cells, 48 hours exposure
Experimental: The cytotoxicity studies were carried out on the RS4; 11 leukaemia tumour line.
The cells are distributed onto microplates and exposed to the test compounds for 48 hours.
The cell viability is then quantified by a colorimetric assay, the Microculture Tetrazolium Assay (Cancer Res., 1987, 47, 939-942).

Bcl-2 protein, sequence (P10415 whole entry): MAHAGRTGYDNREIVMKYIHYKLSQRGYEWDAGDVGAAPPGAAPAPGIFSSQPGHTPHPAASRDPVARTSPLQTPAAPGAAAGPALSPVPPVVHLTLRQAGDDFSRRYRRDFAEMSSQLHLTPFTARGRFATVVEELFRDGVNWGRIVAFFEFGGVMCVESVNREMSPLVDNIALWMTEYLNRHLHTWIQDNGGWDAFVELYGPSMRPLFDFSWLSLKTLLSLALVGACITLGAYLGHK

Row | IC50 [1] [µM] | Compound | IC50 [2] [nM] | IC50 ([2]; Homo sapiens, RS4-11, 48 h) [nM]
1 | 0.268 | Cc1c2cc(n1C)-c1cc(Cl)ccc1C(=O)N1Cc3cccc(c3CC1C)OCCCc1c(cc(C#N)n1C)N(c1ccc(O)cc1)C2=O (single isomer, unassigned) [Example 25, (16R or S)-11-Chloro-4-(4-hydroxyphenyl)-1,7,8,16-tetramethyl-5,14-dioxo-4,5,8,16,17,23,24,25-octahydro-1H,14H-15,18-methano-6,9-(metheno)dibenzo[b,h]-pyrrolo[3,2-p][1,6,11,15]oxatriazacycloicosine-2-carbonitrile] | 809 | –
2 | 0.0041 | Cc1c2cc(n1C)-c1cc(Cl)ccc1C(=O)N1Cc3cccc(c3CC1C)OCCCc1c(cc(C#N)n1C)N(c1ccc(O)cc1)C2=O (single isomer, unassigned) [Example 26, (16S or R)-11-Chloro-4-(4-hydroxyphenyl)-1,7,8,16-tetramethyl-5,14-dioxo-4,5,8,16,17,23,24,25-octahydro-1H,14H-15,18-methano-6,9-(metheno)-dibenzo[b,h]pyrrolo[3,2-p][1,6,11,15]oxatriazacycloicosine-2-carbonitrile] | 1.66 | –
3 | 0.0067 | Cc1c2cc(n1C)-c1cc(Cl)ccc1C(=O)N1CCc3c(cccc3OCCOc3cccc(c3)N(c3ccc(O)cc3)C2=O)C1 [Example 1, 6-Chloro-14-(4-hydroxyphenyl)-10,11-dimethyl-20,23-dioxa-1,10,14-triazahexacyclo[26.3.1.1˜9,12˜.1˜15,19−.0˜3,8˜.0˜24.29˜]tetratriaconta-3,5,7,9(34),11,15(3.3),16,18,24,26,28-undecaene-2,13-dione] | – | 107
4 | 0.0044 | Cc1c2cc(n1C)-c1cc(Cl)ccc1C(=O)N1CCc3c(cccc3OCCCOc3cccc(c3)N(c3ccc(O)cc3)C2=O)C1 [Example 2, 6-Chloro-14-(4-hydroxyphenyl)-10,11-dimethyl-20,24-dioxa-1,10,14-triazahexacyclo[27.3.1.1˜9,12˜.1˜15,19˜.0˜3,8˜.0˜25,30˜]pentatriaconta-3,5,7,9(35),11,15(34),16,18,25,27,29-undecaene-2,13-dione] | – | 179
5 | 0.0655 | Cc1c2cc(n1C)-c1cc(Cl)ccc1C(=O)N1CCc3c(cccc3OCCCCOc3cccc(c3)N(c3ccc(O)cc3)C2=O)C1 [Example 3, 6-Chloro-14-(4-hydroxyphenyl)-10,11-dimethyl-20,25-dioxa-1,10,14-triazahexacyclo[28.3.1.1˜9,12˜.1˜15,19˜.0˜3,8˜.0˜26,31˜]hexatriaconta-3,5,7,9(36),11,15(35),16,18,26,28,30-undecaene-L 3-dione] | – | 749
6 | 0.0023 | Cc1c2cc(n1C)-c1cc(Cl)ccc1C(=O)N1CCc3c(cccc3OCCOc3cc(C#N)cc(c3)N(c3ccc(O)cc3)C2=O)C1 [Example 4, 6-Chloro-14-(4-hydroxyphenyl)-10,11-dimethyl-2,13-dioxo-20,23-dioxa-1,10,14-triazahexacyclo[26.3.1.1˜9,12˜.1˜5,19˜.0˜3,8˜.0˜24.29˜]tetratriaconta-3,5,7,9(34),11,15(33),16,18,24,26,28-undecaene-17-carbonitrile] | – | 7.73
7 | 0.00205 | Cc1c2cc(n1C)-c1cc(Cl)ccc1C(=O)N1CCc3c(cccc3OCCCOc3cc(C#N)cc(c3)N(c3ccc(O)cc3)C2=O)C1 [Example 5, 6-Chloro-14-(4-hydroxyphenyl)-10,11-dimethyl-2,13-dioxo-20,24-dioxa-1,10,14-triazahexacyclo[27.3.1.1˜9,12˜.1˜15,19˜.0˜3,8˜.0˜25,30˜]pentatriaconta-3,5,7,9(35),11,15(34),16,18,25,27,29-undecaene-17-carbonitrile] | – | 21.4
8 | 0.003 | Cc1c2cc(n1C)-c1cc(Cl)ccc1C(=O)N1CCc3c(cccc3OCCCCn3c(C#N)cc(c3C)N(c3ccc(O)cc3)C2=O)C1 [Example 7, 6-Chloro-14-(4-hydroxyphenyl)-10,11,33-trimethyl-2,13-dioxo-23-oxa-1,10,14,18-tetraazahexacyclo[26.3.1.1˜9,12˜.1˜15,18˜.0˜3,8˜.0˜24,29˜]tetratriaconta-3,5,7,9(34),11,15(33),16,24,26,28-decaene-17-carbonitrile] | – | 4.94
9 | 0.00615 | Cc1c2cc(n1C)-c1cc(Cl)ccc1C(=O)N1CCc3c(cccc3OCCCn3c(C#N)cc(c3C)N(c3ccc(O)cc3)C2=O)C1 [Example 8, 6-Chloro-14-(4-hydroxyphenyl)-10,11,32-trimethyl-2,13-dioxo-22-oxa-1,10,14,18-tetraazahexacyclo[25.3.1.1˜9,12˜.1˜15,18˜.0˜3,8˜.0˜23,28˜]tritriaconta-3,5,7,9(33),11,15(32),16,23,25,27-decaene-17-carbonitrile] | – | 49.3
10 | 0.0023 | Cc1c2cc(n1C)-c1cc(Cl)ccc1C(=O)N1CCc3c(cccc3OCCCc3cc(C#N)cc(c3)N(c3ccc(O)cc3)C2=O)C1 [Example 9, 6-Chloro-14-(4-hydroxyphenyl)-10,11-dimethyl-2,13-dioxo-23-oxa-1,10,14-triazahexacyclo[26.3.1.1˜9,12˜.1˜15,19˜.0˜3,8˜.0˜24,29˜]tetratriaconta-3,5,7,9(34),11.15 (33),16,18,24,26,28-undecaene-17-carbonitrile] | – | 5.24
11 | 0.299 | Cc1c2cc(n1C)-c1cc(Cl)ccc1CN1CCc3c(cccc3OCCc3c(cnn3C)N(c3ccc(O)cc3)C2=O)C1 [Example 10, 11-Chloro-4-(4-hydroxyphenyl)-1,7,8-trimethyl-1,4,16,17,23,24-hexahydro-14H-15,18-methano-6,9-(metheno)dibenzo[l,r]pyrazolo[3,4-d]-[1,6,10,15]oxatriazacyclononadecin-5(8H)-one hydrochloride] | – | > 300
12 | 0.157 | Cc1c2cc(n1C)-c1cc(Cl)ccc1CN1CCc3c(cccc3OCCCc3c(cnn3C)N(c3ccc(O)cc3)C2=O)C1 [Example 11, 11-Chloro-4-(4-hydroxyphenyl)-1,7,8-trimethyl-4,16,17,23,24,25-hexahydro-1H,14H-15,18-methano-6,9-(metheno)dibenzo[b,h]pyrazolo[4,3-p]-[1,6,11,15]oxatriazacycloicosin-5(8H)-one] | – | 448
13 | 0.0332 | Cc1c2cc(n1C)-c1cc(Cl)ccc1C(=O)N1Cc3ccccc3C(COc3ccc(C#N)cc3N(c3ccc(O)cc3)C2=O)C1 (centres unmarked) [Example 13, 12-Chloro-5-(4-hydroxyphenyl)-8,9-dimethyl-6,15-dioxo-6,9,22,23-tetrahydro-5H,15H,17H-16,22-methano-7,10-(metheno)tribenzo[b,j,o][1,4,8,13]oxa-triazacyclooctadecine-3-carbonitrile] | – | 239
14 | 0.0147 | Cc1c2cc(n1C)-c1cc(Cl)ccc1C(=O)N1CCc3c(cccc3C1)CCCOc1cc(C#N)cc(c1)N(c1ccc(O)cc1)C2=O [Example 14, 6-Chloro-14-(4-hydroxyphenyl)-10,11-dimethyl-2,13-dioxo-20-oxa-1,10,14-triazahexacyclo[26.3.1.1˜9,12˜.1˜15,19˜.0˜3,8˜.0˜24,29˜]tetratriaconta-3,5,7,9(34),11,15(33),16,18,24,26,28-undecaene-17-carbonitrile] | – | 14.6
15 | 0.0037 | Cc1c2cc(n1C)-c1cc(Cl)ccc1C(=O)N1CCc3c(cccc3OCCCCn3cc(cn3)N(c3ccc(O)cc3)C2=O)C1 [Example 15, Chloro-14-(4-hydroxyphenyl)-10,11-dim ethyl-23-oxa-1,10,14,17,18-pentaazahexacyclo[26.3.1.1˜9,12˜.1˜15,18˜.0˜3,8˜.0˜24,29˜]tetratriaconta-3,5,7, 9(34),11,15(33),16,24,26,28-deca ene-2,13-dione] | – | 11.6
16 | 0.0123 | Cc1c2cc(n1C)-c1cc(Cl)ccc1C(=O)N1Cc3cccc(c3CC1CN1CCOCC1)OCCCc1c(cnn1C)N(c1ccc(O)cc1)C2=O (centres unmarked) [Example 17, 11-Chloro-4-(4-hydroxyphenyl)-1,7,8-trimethyl-16-(morpholin-4-ylmethyl)-4,16,17,23,24,25-hexahydro-1H,14H-15,18-methano-6,9-(metheno)dibenzo-[b,h]pyrazolo[4,3-p][1,6,11,15]oxatriazacycloicosine-5,14(8H)-dione] | – | 62.8
17 | 0.0055 | Cc1c2cc(n1C)-c1cc(Cl)ccc1C(=O)N1CCc3c(cccc3OCCc3c(cc(C#N)n3C)N(c3ccc(O)cc3)C2=O)C1 [Example 19, 11-Chloro-4-(4-hydroxyphenyl)-1,7,8-trimethyl-5,14-dioxo-1,4,5,8,16,17,23,24-octahydro-14H-15,18-methano-6,9-(metheno)dibenzo[l,r]pyrrolo-[2,3-d][1,6,10,15]oxatriazacyclononadecine-2-carbonitrile] | – | 10.3
18 | 0.0123 | Cc1c2cc(n1C)-c1cc(F)ccc1C(=O)N1CCc3c(cccc3OCCc3c(cnn3C)N(c3ccc(O)cc3)C2=O)C1 [Example 20, 11-Fluoro-4-(4-hydroxyphenyl)-1,8-trimethyl-1,4,16,17,23,24-hexahydro-14H-15,18-methano-6,9-(metheno)dibenzo[l,r]pyrazolo[3,4-d][1,6,10,15]oxatriazacyclo-nonadecine-5,14(8H)-dione] | – | 81.2
19 | 0.0148 | Cc1c2cc(n1C)-c1cc(Cl)ccc1C(=O)N1CCc3c(cccc3OCCOc3c(cnn3C)N(c3ccc(O)cc3)C2=O)C1 [Example 21, 11-Chloro-4-(4-hydroxyphenyl)-1,7,8-trimethyl-1,4,16,17,23,24-hexahydro-14H-15,18-methano-6,9-(metheno)dibenzo[m,s]pyrazolo[3,4-e][1,4,7,11,16]dioxa-triazacycloeicosin-5,14(8H)-dione] | – | 131
